The results in this text go back to patent publication US8501713B2, “Drug combinations for the treatment of duchenne muscular dystrophy” (Summit Corporation PLC, priority 2007, dated 2013).

Structures are written as SMILES.

The first assay relates to Utrophin A promoter linked to a luciferase reporter gene. Description: Luciferase reporter assay (murine H2K cells). The format is cell-based. As to conditions: Mus musculus, H2K mdx, luciferase level relative to control; H2K/mdx/Utro A reporter cells; compound 10 μM final concentration; read-out: Activity. The method, then: 1. Luciferase Reporter Assay (Murine H2K Cells)
The cell line used for the screen is an immortalized mdx mouse H2K cell line that has been stably transfected with a plasmid containing […] fragment of the Utrophin A promoter including the first untranslated exon linked to a luciferase reporter gene. Under conditions of low temperature and interferon containing media, the cells remain as myoblasts. These are plated into 96 well plates and cultured in the presence of compound for three days. The level of luciferase is then determined by cell lysis and reading of the light output from the expressed luciferase gene utilising a plate luminometer.
H2K/mdx/Utro A reporter Cell Line Maintenance
The cells were grown at 33° C. in the presence of 10% CO2. To remove the myoblasts for platting, they were incubated with Trypsin EDTA until the monolayer started to detach.
The plates were then incubated at 33° C. in the presence of 10% CO2 for 24 hrs. Compounds were dosed by adding 10 μl of diluted compound to each well giving a final concentration of 10 μM. The plates were then incubated for a further 48 hrs. Cells were then lysed in situ following the manufacture's protocols (Promega Steady-Glo Luciferase Assay System (E2520). Then counted for 10 seconds using a plate luminometer (Victor1420).
Compounds for screening were stored at −20° C. as 10 mM stocks in 100% DMSO until required.
Biological activity as assessed using the luciferase reporter assay in murine H2K cells, and is classified as follows: […]
In general terms: Reporter assays use an easily measured gene product as a stand-in for the process of interest.
Turning to `CCCc1ccc(-c2nc3ccc(C(=O)O)cc3o2)cc1` [Example 109, 2-(4-propylphenyl)benzo[d]oxazole-6-carboxylic acid], the activity at 10 µM is below 200%.
The same measure, in the same setting: next, `O=C(Nc1ccc2oc(-c3ccc(Cl)cc3)nc2c1)C1CC1` [Example 265, N-(2-(4-chlorophenyl)benzo[d]oxazol-5-yl)cyclopropanecarboxamide]: above 401%; `O=[N+]([O-])c1ccc2nc(-c3ccccc3)oc2c1` [Example 130, 6-nitro-2-phenylbenzo[d]oxazole]: 201 to 300%.
The same measure, in the same setting: the same measure for `CC(C)NC(=O)Nc1ccc2oc(-c3ccccc3)nc2c1` [Example 241, 1-isopropyl-3-(2-phenylbenzo[d]oxazol-5-yl)urea]: below 200%.
On the same count and under the same terms, the same measure for `CCN(CC)c1ccc(-c2nc3cc(N)ccc3o2)cc1` [Example 16, 2-(4-(diethylamino)phenyl)benzo[d]oxazol-5-amine]: 201 to 300%.
As for `Nc1ccc2oc(-c3cccc(F)c3)nc2c1` [Example 232, 2-(3-fluorophenyl)benzo[d]oxazol-5-amine], the activity at 10 µM was above 401%.
Turning to `CCN(CC)c1ccc(-c2nc3cc(NC(=O)C(C)C)ccc3o2)cc1` [Example 78, N-(2-(4-(diethylamino)phenyl)benzo[d]oxazol-5-yl)isobutyramide], the activity at 10 µM is below 200%.
On the same count and under the same terms, next, `Cc1cccc(-c2nc3cc(NC(=O)C(C)C)ccc3o2)c1` [Example 202, N-(2-m-tolylbenzo[d]oxazol-5-yl)isobutyramide]: above 401%; `CCS(=O)(=O)c1ccc2oc(-c3ccc(C)cc3)nc2c1` [Example 179, 5-(ethylsulfonyl)-2-p-tolylbenzo[d]oxazole]: above 401%; `CN1CCN(c2ccc(-c3nc4cc(N)ccc4o3)cc2)CC1` [Example 151, 2-(4-(4-methylpiperazin-1-yl)phenyl)benzo[d]oxazol-5-amine]: 201 to 300%.
As for `CCCC(=O)Nc1ccc2oc(-c3ccc(N(CC)CC)cc3)nc2c1` [Example 76, N-(2-(4-(diethylamino)phenyl)benzo[d]oxazol-5-yl)butyramide], the activity at 10 µM was below 200%.
Same read-out and setting: next, `Cc1ccc(-c2nc3cc(Br)ccc3o2)cc1` [Example 198, 5-bromo-2-p-tolylbenzo[d]oxazole]: 301 to 400%; `CC(C)C(=O)Nc1cc2oc(-c3ccc4c(c3)OCO4)nc2cc1Cl` [Example 398, N-(2-(benzo[d][1,3]dioxol-5-yl)-5-chlorobenzo[d]oxazol-6-yl)isobutyramide]: below 200%.

The assay is the same for the next values; noted with them: luciferase level relative to control; H2K/mdx/Utro A reporter cells; compound 10 μM final concentration.
Turning to `CCN(CC)c1ccc(-c2nc3cc(N)ccc3o2)cc1` [Example 17, 2-(4-(diethylamino)phenyl)benzo[d]oxazol-5-amine], the Activity result is reported as “+ (Up to 200% relative to control)”.

Staying with this assay, now noted: luciferase reporter assay in murine H2K cells; classified relative to control.
As to `O=[N+]([O-])c1ccc(Cl)c(-c2nc3ccccc3s2)c1` [Example 524], the Activity result is listed as “+ (Up to 200% relative to control)”.
`COc1ccc(-c2nc3ccccc3[nH]2)cc1` [Example 470]: the Activity entry was “++ (Between 201% and 300% relative to control)”.
As to `Cc1ccc(NC(=O)C(=O)c2c[nH]c3ccccc23)c(Br)c1` [Example 663], the Activity result was “+++ (Between 301% and 400% relative to control)”.
The same measure, in the same setting: the same measure for `Cc1nc2ccc(NC(=O)Nc3ccccc3)cc2o1` [Example 466]: “+ (Up to 200% relative to control)”; for `COc1ccc(-c2nc3ccccc3o2)cc1N` [Example 619]: “++++ (Above 401% relative to control)”.
Same read-out and setting: the same measure for `CNC(=O)Nc1ccc2nc(C)oc2c1` [Example 467]: “+ (Up to 200% relative to control)”; for `Cc1cc(-c2nc3cc(N)ccc3o2)ccc1Br` [Example 649]: “+++ (Between 301% and 400% relative to control)”.
The same measure, in the same setting: next, `CC(=O)Nc1ccc(-c2nc3cc(C)ccc3o2)cc1` [Example 662]: “+++ (Between 301% and 400% relative to control)”.
